Reference: patent US8987167B2, “Low volatile amine salts of anionic pesticides” (BASF SE, priority 2009, dated 2015)
Like-named read-outs stand apart in the source and are kept apart here.

What was measured:
[1] = Volatility determined by TGA (thermal gravimetric analysis); type: physicochemical
Protocol: The volatility of the aqueous solutions of dicamba (480 g/l) or 2,4-D (250 g/l) as prepared in Example 1 was determined by analyzing the wt % loss per minute as calculated by the slope between 400 min and 1200 min of a TGA (thermal gravimetric analysis) analysis. The measurement conditions on a TA Instrument TGA Q50 were as follows: Pan type: Platinum; sample size 25 μl leveling uniformly on pan surface, balance purge flow 40 ml/min; sample purge flow 60 ml/min; temperature procedure: Start at 20° C., ramp 10° C./min to 100° C., then isothermal for 1200 min.
The volatility of the aqueous solutions of glyphosate salts as prepared in Example 6 was determined by analyzing the wt % loss per minute as described in Example 3.

[2] = 30% humidity; for Volatility after 2 weeks (wt % loss) / Volatility after 4 weeks (wt % loss): Petri dish, 480 g/l solution diluted 1:50, 50° C., forced air flow, loss of dicamba acid by HPLC
Protocol: A dicamba sample of the aqueous solutions of dicamba (480 g/l) as prepared in Example 1 (Table 1, entry 2) was diluted with distilled water in a ratio of 1:50. To help spreading of the samples uniformly on the surface of the plate, Silwet L-77 was added (0.1 wt %). A total of 300 μl of this diluted sample was applied per Petri dish (diameter 5 cm). The dishes were kept at an environment chamber (Barnstead Environ-Cab Lab-line 680A) with forced air flow (air vent out) up to one month at 50° C. and 30% humidity. Afterwards the plates were extracted with acetic acid/methanol and the pesticide quantified by HPLC (Columbus C18 column) to determine the volatile loss of dicamba acid.

[3] = pH 7
[4] = 2,4-D salts, 250 g/l, TGA, normed, dimethylamine salt = 100.0
[5] = 2,4-D salts, aqueous solution 250 g/l, TGA isothermal at 100° C., slope between 400 min and 1200 min
[6] = soybean injury (epinasty and stunting) 14 days after 24 h vapour exposure to Petri dishes treated with 4480 g active ingredient per ha, normalized to 30% for the 2-(-aminoethoxy)ethanol salt
[7] = Dicamba salts, 480 g/l, TGA, normalized, dicamba acid = 100.0
[8] = Dicamba salts, aqueous solution 480 g/l, TGA isothermal at 100° C., slope between 400 min and 1200 min
[9] = Glyphosate salts, aqueous solution 480 g/l, TGA

Protocol for soybean plants: Soybeans were grown in a 3 inch (7.6 cm) pots for approximately 10 days until the first trifoliate is unfolded (not fully expanded). […] Immediately after treatment, eight Petri dishes and two soybean plants were placed in a tray (25×51 cm) and covered with a plastic dome (25×51×20 cm). The covered trays were placed in a greenhouse with temperature maintained at 25-35° C. and 50-80% humidity. After 24 h of exposure, the plastic dome was removed.

CN(CCCN)CCCN.COc1c(Cl)ccc(Cl)c1C(=O)O
Injury (%) (soybean plants; in vivo): 7% | Volatility (normalized) [1]: 0.5 | Volatility (wt % loss per min) [1]: 0.0003 wt % loss per min

CN(CCCN)CCCN.O=C(O)CNCP(=O)(O)O
Volatility (wt % loss per min) [1]: 0.002 wt % loss per min

NCCNCCO.O=C(O)COc1ccc(Cl)cc1Cl [2,4-D salt: Aminoethylethanolamine]
Volatility (normed) [1, 4]: 35.7 | Volatility (wt % loss per min) [1, 5]: 0.002 wt % loss per min

NCCNCCN.O=C(O)COc1ccc(Cl)cc1Cl [2,4-D salt: Diethylenetriamine]
Volatility (normed) [1, 4]: 13.7 | Volatility (wt % loss per min) [1, 5]: 0.0008 wt % loss per min

CNC.O=C(O)COc1ccc(Cl)cc1Cl [2,4-D salt: Dimethylamine, reference compound]
Volatility (normed) [1]: 100.0 | Volatility (wt % loss per min) [1]: 0.006 wt % loss per min

CN(C)CCCNCCCN(C)C.O=C(O)COc1ccc(Cl)cc1Cl [2,4-D salt: Jeffcat ® Z-130]
Volatility (normed) [1, 4]: 14.8 | Volatility (wt % loss per min) [1, 5]: 0.0008 wt % loss per min

COc1c(Cl)ccc(Cl)c1C(=O)O [Dicamba acid, dicamba, reference compound]
Injury (%) (soybean plants; [6]): 67% | Volatility (normalized) [1, 7]: 100.0 | Volatility (wt % loss per min) [1, 8]: 0.060 wt % loss per min

COc1c(Cl)ccc(Cl)c1C(=O)O.NCCOCCO [Dicamba salt: 2-(-Aminoethoxy)ethanol, dicamba 2-(-Aminoethoxy)ethanol salt, reference compound]
Volatility after 2 weeks (wt % loss) [2]: 29.3 wt % loss | Volatility after 4 weeks (wt % loss) [2]: 57.0 wt % loss | Injury (%) (soybean plants; [6]): 30% | Volatility (normalized) [1, 7]: 5.4 | Volatility (wt % loss per min) [1, 8]: 0.0032 wt % loss per min

COc1c(Cl)ccc(Cl)c1C(=O)O.NCCNCCO [Dicamba salt: Aminoethylethanolamine, aminoethylethanolamine salt of dicamba]
volatility compared to commercial dicamba salt formulations (Petri dish) ([2]; 50° C., up to one month): reduced volatility compared to commercial dicamba salt formulations | Volatility after 2 weeks (wt % loss) [2]: 6.2 wt % loss | Volatility after 4 weeks (wt % loss) [2]: 20.6 wt % loss | Injury (%) (soybean plants; [6]): 5% | Volatility (normalized) [1, 7]: 3.1 | Volatility (wt % loss per min) [1, 8]: 0.0018 wt % loss per min

COc1c(Cl)ccc(Cl)c1C(=O)O.NCCN1CCNCC1 [Dicamba salt: Aminoethylpiperazine]
Injury (%) (soybean plants; [6]): 19% | Volatility (normalized) [1, 7]: 0.4 | Volatility (wt % loss per min) [1, 8]: 0.0002 wt % loss per min

COc1c(Cl)ccc(Cl)c1C(=O)O.NCCNCCN [Dicamba salt: Diethylenetriamine]
Injury (%) (soybean plants; [6]): 14% | Volatility (normalized) [1, 7]: 0.7 | Volatility (wt % loss per min) [1, 8]: 0.0004 wt % loss per min

CNC.COc1c(Cl)ccc(Cl)c1C(=O)O [Dicamba salt: Dimethylamine, dicamba dimethylamine salt, reference compound]
Volatility after 2 weeks (wt % loss) [2]: 98.7 wt % loss | Volatility after 4 weeks (wt % loss) [2]: 100 wt % loss | Injury (%) (soybean plants; in vivo): 48% | Volatility (normalized) [1]: 17.8 | Volatility (wt % loss per min) [1]: 0.011 wt % loss per min

CC1(C)CC(N)CC(C)(CN)C1.COc1c(Cl)ccc(Cl)c1C(=O)O [Dicamba salt: Isophorone diamine]
Injury (%) (soybean plants; [6]): 19% | Volatility (normalized) [1]: 0.4 | Volatility (wt % loss per min) [1, 8]: 0.0002 wt % loss per min

CN(C)CCCN(C)CCCN(C)C.COc1c(Cl)ccc(Cl)c1C(=O)O [Dicamba salt: Jeffcat ZR-40]
Volatility (normalized) [1, 7]: 5.0 | Volatility (wt % loss per min) [1, 8]: 0.0030 wt % loss per min

CN(C)CCCNCCCN(C)C.COc1c(Cl)ccc(Cl)c1C(=O)O [Dicamba salt: Jeffcat ® Z-130]
Injury (%) (soybean plants; [6]): 5% | Volatility (normalized) [1, 7]: 2.9 | Volatility (wt % loss per min) [1, 8]: 0.0017 wt % loss per min

NCCN1CCNCC1.O=C(O)CNCP(=O)(O)O [Glyphosate salt: Aminoethylpiperazine]
Volatility (wt % loss per min) [1, 9]: 0.002 wt % loss per min

NCCNCCN.O=C(O)CNCP(=O)(O)O [Glyphosate salt: Diethylenetriamine, glyphosate diethylenetriamine salt, reference compound]
Volatility (wt % loss per min) [1, 9]: 0.002 wt % loss per min

CC1(C)CC(N)CC(C)(CN)C1.O=C(O)CNCP(=O)(O)O (stereo not drawn) [Glyphosate salt: Isophorone diamine]
Volatility (wt % loss per min) [1, 9]: 0.002 wt % loss per min

COc1c(Cl)ccc(Cl)c1C(=O)O.NCCCN1CCOCC1 [aminopropylmorpholine (APM) salt of dicamba, reference compound]
solubility in water [3]: ≤ 300 mg/mL | Volatility expected for a concentration of 480 g/l ([1]; dicamba salt, 480 g/l (solution could not be prepared), compared with 0.0021 wt % loss per min at 300 g/l): expected to be higher | Volatility (wt % loss per min) ([1]; dicamba salt, aqueous solution 300 g/l, TGA): 0.0021 wt % loss per min
